# Measurements: ChEMBL document CHEMBL3885861, “Open TG-GATES”
# Organism: Rattus norvegicus
# Assay: Open TG-GATES - Regimen: Daily Repeat
# Assay type: toxicity, organism-based, Sprague-Dawley
# Design: regimen Daily Repeat, gender Male, age 6 weeks
# Settings: in vivo, po, route gavage; for gamma-GTP / ALP / ALT / AST / CRE / Ca / Cl / DBIL / GLC / IP / K / LDH / RALB / TBIL / TC / TG / TP: tissue Plasma; for APTT / Bas / Eos / Fbg / Ht / Lym / MCH / MCHC / MCV / Mono / Neu / PT / Plat / RBC / Ret / WBC: tissue Blood; for KIDNEY_L / KIDNEY_R / KIDNEY_TOTAL: tissue Kidney
# [1] = 10 mg/kg, 72 h, dose level Low, time 3 day
# [2] = 10 mg/kg, […], dose level Low, time 7 day
# [3] = 10 mg/kg, […], dose level Low, time 14 day
# [4] = 10 mg/kg, […], dose level Low, time 28 day
smiles,measurement,setting,value
Cn1c(=O)c2c(ncn2C)n(C)c1=O [CAFFEINE],gamma-GTP,"0 mg/kg, […], dose level Control, time 28 day",2.2 IU/L
same,TERMINAL_BW,[1],226.8 g
same,APTT,[1],21.4 s
same,Bas,[1],0%
same,Eos,[1],1%
same,Fbg,[1],307.2 mg/dL
same,Ht,[1],38.9%
same,Lym,[1],80.2%
same,MCH,[1],20.9 pg
same,MCHC,[1],33.2%
same,MCV,[1],62.9 fL
same,Mono,[1],1.8%
same,Neu,[1],16.4%
same,PT,[1],15.5 s
same,Plat,[1],118.8 x10_4/uL
same,RBC,[1],618.6 x10_4/ul
same,Ret,[1],5.7%
same,WBC,[1],73.5 x10_2/uL
same,KIDNEY_L,[1],1 g
same,KIDNEY_R,[1],1 g
same,KIDNEY_TOTAL,[1],2 g
same,ALP,[1],1442.2 IU/L
same,ALT,[1],43.8 IU/L
same,AST,[1],70.8 IU/L
same,CRE,[1],0.2 mg/dL
same,Ca,[1],10.8 mg/dL
same,Cl,[1],107.6 meq/L
same,DBIL,[1],0 mg/dL
same,GLC,[1],183.2 mg/dL
same,IP,[1],7.5 mg/dL
same,K,[1],4.2 meq/L
same,LDH,[1],154.6 IU/L
same,RALB,[1],3 g/dL
same,TBIL,[1],0.004 mg/dL
same,TC,[1],75.8 mg/dL
same,TG,[1],87.8 mg/dL
same,TP,[1],5.6 g/dL
same,gamma-GTP,[1],1.2 IU/L
same,TERMINAL_BW,[2],259.9 g
same,TERMINAL_BW,[3],300.9 g
same,TERMINAL_BW,[4],396.8 g
same,APTT,[2],22.8 s
same,Bas,[2],0%
same,Eos,[2],1%
same,Fbg,[2],316 mg/dL
same,Ht,[2],40.6%
same,Lym,[2],79%
same,MCH,[2],20.9 pg
same,MCHC,[2],33.3%
same,MCV,[2],62.7 fL
same,Mono,[2],2%
same,Neu,[2],16.8%
same,PT,[2],15.3 s
same,Plat,[2],112.2 x10_4/uL
same,RBC,[2],648.4 x10_4/ul
same,Ret,[2],6.1%
same,WBC,[2],106.3 x10_2/uL
same,APTT,[3],23.2 s
same,Bas,[3],0%
same,Eos,[3],0.8%
same,Fbg,[3],306.2 mg/dL
same,Ht,[3],41.1%
same,Lym,[3],81.2%
same,MCH,[3],20.1 pg
same,MCHC,[3],34%
same,MCV,[3],59.2 fL
same,Mono,[3],1.4%
same,Neu,[3],15.4%
same,PT,[3],15.1 s
same,Plat,[3],112.6 x10_4/uL
same,RBC,[3],693.6 x10_4/ul
same,Ret,[3],4.5%
same,WBC,[3],105.4 x10_2/uL
same,APTT,[4],25.8 s
same,Bas,[4],0%
same,Eos,[4],0.6%
same,Fbg,[4],309.2 mg/dL
same,Ht,[4],43.1%
same,Lym,[4],84%
same,MCHC,[4],34.5%
same,MCV,[4],54.7 fL
same,Mono,[4],1.6%
same,Plat,[4],99.3 x10_4/uL
same,RBC,[4],788.8 x10_4/ul
same,Ret,[4],2.5%
same,WBC,[4],105.2 x10_2/uL
same,KIDNEY_L,[2],1.1 g
same,KIDNEY_R,[2],1.1 g
same,KIDNEY_TOTAL,[2],2.2 g
same,KIDNEY_L,[3],1.2 g
same,KIDNEY_R,[3],1.2 g
same,KIDNEY_TOTAL,[3],2.5 g
same,KIDNEY_L,[4],1.5 g
same,KIDNEY_R,[4],1.5 g
same,KIDNEY_TOTAL,[4],3 g
same,ALP,[2],1552.6 IU/L
same,ALT,[2],47.6 IU/L
same,AST,[2],75.2 IU/L
same,CRE,[2],0.2 mg/dL
same,Ca,[2],10.5 mg/dL
same,Cl,[2],106.4 meq/L
same,DBIL,[2],0 mg/dL
same,GLC,[2],192.8 mg/dL
same,IP,[2],7.8 mg/dL
same,K,[2],4.4 meq/L
same,LDH,[2],179.4 IU/L
same,RALB,[2],3 g/dL
same,TBIL,[2],0.002 mg/dL
same,TC,[2],73.4 mg/dL
same,TG,[2],102.4 mg/dL
same,TP,[2],5.5 g/dL
same,gamma-GTP,[2],2.4 IU/L
same,ALP,[3],1475.8 IU/L
same,AST,[3],71.8 IU/L
same,CRE,[3],0.2 mg/dL
same,Ca,[3],10.6 mg/dL
same,Cl,[3],105.8 meq/L
same,DBIL,[3],0 mg/dL
same,GLC,[3],194 mg/dL
same,IP,[3],6.8 mg/dL
same,K,[3],4.2 meq/L
same,LDH,[3],160.2 IU/L
same,RALB,[3],3 g/dL
same,TBIL,[3],0.004 mg/dL
same,TC,[3],68.4 mg/dL
same,TG,[3],146.6 mg/dL
same,TP,[3],5.8 g/dL
same,gamma-GTP,[3],2.2 IU/L
same,ALP,[4],1054 IU/L
same,ALT,[4],43 IU/L
same,AST,[4],66.2 IU/L
same,CRE,[4],0.2 mg/dL
same,Ca,[4],10.4 mg/dL
same,Cl,[4],105.8 meq/L
same,DBIL,[4],0 mg/dL
same,GLC,[4],204.4 mg/dL
same,IP,[4],6.7 mg/dL
same,K,[4],4 meq/L
same,LDH,[4],153 IU/L
same,RALB,[4],3.2 g/dL
same,TBIL,[4],0.004 mg/dL
same,TC,[4],73.6 mg/dL
same,TG,[4],147.6 mg/dL
